Experiment [1] is filed under the species Rattus norvegicus. Put plainly: The compound was tested in vitro for the inhibition of [3H]naltrexone in rat brain homogenates in the presence of MnCl2 at 10 nM dose.
The species entered for experiment [2] is Rattus norvegicus. Put plainly: Percent decrease in activity for the inhibition of [3H]-Naltrexone in rat brain homogenates in the presence of standard at dose of 10 nM compared with that of control (4930+/-143 cpm). Type of experiment: functional.
For experiment [3], the species on record is Rattus norvegicus. Nature of the experiment: Percent decrease in activity for the inhibition of [3H]naltrexone in rat brain homogenates in the presence of NaCl at dose of 10 nM compared with that of control (6070+/-75 cpm). Type of experiment: functional.
The species named for experiment [4] is Rattus norvegicus. Nature of the experiment: The compound was tested in vitro for the inhibition of [3H]naltrexone in rat brain homogenates in the presence of standard at 10 nM dose. Format: functional.
The species named for experiment [5] is Rattus norvegicus. Nature of the experiment: The compound was tested in vitro for the inhibition of [3H]-Naltrexone in rat brain homogenates in the presence of NaCl at 10 nM dose. Format: functional.
Experiment [6] is filed under the species Rattus norvegicus. Nature of the experiment: Percent decrease in activity for the inhibition of [3H]naltrexone in rat brain homogenates in the presence of MnCl2 at dose of 10 nM compared with that of control (4080+/-138 cpm). Type of experiment: functional.
The species named for experiment [7] is Mus musculus. Nature of the experiment: Percent analgesia of compound was measured in mice by using tail-flick assay. Format: functional. (In general: Hot-plate and tail-flick tests time the reaction to a heat stimulus.)
For experiment [8], the species on record is Rattus norvegicus. Nature of the experiment: Percent decrease in activity for the inhibition of [3H]naltrexone in rat brain homogenates in the presence of NaCl at dose of 4 nM compared with that of control (6070+/-75 cpm). Format: functional.
For experiment [9], the species on record is Rattus norvegicus. Put plainly: Percent decrease in activity for the inhibition of [3H]naltrexone in rat brain homogenates in the presence of NaCl and MnCl2 at dose of 4 nM compared with that of control (5840+/-72 cpm). Type of experiment: functional.
For experiment [10], the species on record is Rattus norvegicus. Nature of the experiment: The compound was tested in vitro for the inhibition of [3H]-Naltrexone in rat brain homogenates in the presence of MnCl2 at 10 nM dose. Format: functional.
The species entered for experiment [11] is Rattus norvegicus. Put plainly: The compound was tested in vitro for the inhibition of [3H]naltrexone in rat brain homogenates in the presence of NaCl and MnCl2 at 10 nM dose. Type of experiment: functional, organism-based.
For experiment [12], the species on record is Rattus norvegicus. Nature of the experiment: Percent decrease in activity for the inhibition of [3H]naltrexone in rat brain homogenates in the presence of standard at dose of 4 nM compared with that of control (4930+/-143 cpm). Format: functional.
The species named for experiment [13] is Rattus norvegicus. Nature of the experiment: The compound was tested in vitro for the inhibition of [3H]-Naltrexone in rat brain homogenates in the presence of MnCl2 at 4 nM dose. Format: functional.
Experiment [14] is filed under the species Rattus norvegicus. Nature of the experiment: The compound was tested in vitro for the inhibition of [3H]naltrexone in rat brain homogenates in the presence of standard at 4 nM dose. Format: functional.
Experiment [15] is filed under the species Rattus norvegicus. Put plainly: Percent decrease in activity for the inhibition of [3H]naltrexone in rat brain homogenates in the presence of MnCl2 at dose of 4 nM compared with that of control (4080+/-138 cpm). Format: functional.
For experiment [16], the species on record is Rattus norvegicus. Nature of the experiment: The compound was tested in vitro for the inhibition of [3H]naltrexone in rat brain homogenates in the presence of NaCl and MnCl2 at 4 nM dose. Format: functional, organism-based.
The species named for experiment [17] is Rattus norvegicus. Put plainly: Percent decrease in activity for the inhibition of [3H]naltrexone in rat brain homogenates in the presence of NaCl and MnCl2 at dose of 10 nM compared with that of control (5840+/-72 cpm). Format: functional.

Turning to `C=CCN1CC[C@]23c4c5ccc(O)c4O[C@H]2/C(=N\N)CC[C@@]3(O)[C@H]1C5` [NALOXAZONE], the Binding activity in experiment [1] is 3140 c.p.m; in experiment [4], 4400 c.p.m; in experiment [5], 4640 c.p.m. Further, the Decrease in [2] was found to be 11%; in experiment [3] it was 24%; in experiment [6] it was 23%. In experiment [7], this compound yielded an Analgesia of 0%.
For `C=CCN1CC[C@]23c4c5ccc(O)c4O[C@H]2C(=O)CC[C@@]3(O)[C@H]1C5` [NALOXONE], the Analgesia in experiment [7] worked out at 54%.
As to `N/N=C1/CC[C@@]2(O)[C@H]3Cc4ccc(O)c5c4[C@@]2(CCN3CC2CC2)[C@H]1O5` [NALTREXAZONE], the Decrease in experiment [2] is 61%; in experiment [8] it was 39%; in experiment [9], 40%; in [3], 64%; in [12], 39%; in experiment [6], 62%. Moreover, the Decrease stood at 38% in [15] and 62% in [17]. Further, the Binding activity in experiment [10] worked out at 1550 c.p.m; in experiment [4] it was 1910 c.p.m; in experiment [11], 2240 c.p.m; in [5] it was 2200 c.p.m; in experiment [13], 2570 c.p.m; in [14] it was 2980 c.p.m. Also, the Binding activity in [16] is 3480 c.p.m. Further, the Analgesia in experiment [7] is listed as 0%.
Compound `O=C1CC[C@@]2(O)[C@H]3Cc4ccc(O)c5c4[C@@]2(CCN3CC2CC2)[C@H]1O5` [NALTREXONE] gave an Analgesia in experiment [7] of 67%.
Regarding `CN1CC[C@]23c4c5ccc(O)c4O[C@H]2/C(=N\N)CC[C@@]3(O)[C@H]1C5` [OXYMORPHAZONE], the Decrease in [2] turned out to be 24%; in experiment [8] it was 5%; in [12], 2%; in experiment [17] it was 22%. Besides, the Binding activity amounted to 3750 c.p.m in experiment [4], 4560 c.p.m in experiment [11], 5520 c.p.m in experiment [5] and 4860 c.p.m in experiment [14]. Besides, in [7], the Analgesia was found to be 82%.
`CN1CC[C@]23c4c5ccc(O)c4O[C@H]2C(=O)CC[C@@]3(O)[C@H]1C5` [OXYMORPHONE]: the Analgesia in [7] is 17%.
